These results are taken from patent US11504349B2, “Composition for preventing or treating TNF-related diseases, containing novel derivative as active ingredient, and method for inhibiting TNF activity by using same” (ILAB, priority 2017, dated 2022).

For data set [1], the target named is T1, biotinylated TNF (Homo sapiens, UniProt P01375).
T1 construct: purchased R&D Systems NFTAO
The experiment in a line: Flow cytometry: binding of biotinylated TNF to Raw 264.7 cells. It is filed as cell-based, mouse. As to conditions: compound 800, 200, 5 μM, FACS, FIG. 3a. The procedure:
First, macrophage Raw 264.7 cells were prepared (4×10^6 cells/ml), and the biotinylated TNF alone or in combination with the 4-benzopyranone derivative compound (800, 200, 5 μM) was added to the cells and reacted (30 min, 4° C.). 10 μl of avidin-FITC reagent was then added and reacted in the dark (30 min, 4° C.). After washing with RDF1 buffer, FACS analysis was carried out (BD Canto). Human TNF-alpha Biotinylated Fluorokine Flow Cytometry Kit (Cat #: NFTAO) of R&D Systems was used in the experiment.
In general terms: Flow cytometry measures light scatter and fluorescence of single cells or particles in a stream.

In data set [2] the target is T2, TNF (Homo sapiens, UniProt P01375). The experiment in a line: SPR (Biacore T200) direct binding to immobilized TNF. The following applies: FIG. 2d. The procedure:
The binding kinetics of TNF and 4-benzopyranone derivative compounds was measured by Surface Plasmon Resonance (SPR) method. First, based on the results of pH scouting (10 mM acetate buffer, pH 4.0, 4.5, 5.0, and 5.5), the appropriate buffer pH was determined, and then the recombinant TNF was immobilized on the CM5 chip (4000-5000 RU). In order to correct an effect of DMSO, a solvent correction standard was then prepared, and DMSO was added to the HBS-EP+ buffer (GE) in an amount of 5%. Then, the 4-benzopyranone derivative compounds were prepared depending on concentration, flowed into the chip (20 μl/min, 500 s), and dissolved (500 s), and the results of sensorgram were analyzed by a dedicated program to determine the affinity value (KD). At this time, the running buffer was HBS-EP+ buffer (GE), the regeneration buffer was 10 mM glycine (pH 2.5), and Biacore T200 (GE) was used as an analyzer.

The target of data set [3] is T2, TNF. The experiment in a line: TNF-neutralization bioassay: TNF-induced cell death of LM cells (MTT). It is filed as cell-based. The following applies: for inhibition at 50 µM: compound 50 μM, TNF 20 ng/ml, actinomycin D, LM cells, 24 hours. Summed up:
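Mouse fibroblast LM cells (5×10^4 cells/well) treated with TNF (20 ng/ml), compound and actinomycin D sensitizer for 24 h. Viability by MTT (4 h), absorbance at 570 nm. % TNF inhibition from OD relative to TNF-treated and untreated groups; IC50 and CC50 by Prism.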

The nature of data set [4]: Cytotoxicity (CC50) in LM cells, MTT assay. As to conditions: mouse, LM cells (mouse fibroblasts); 50% cytotoxic concentration. It counts as cell-based. The procedure:
First, the addition of recombinant TNF to mouse fibroblast LM cells induces cell death, and thus, by using the same, the TNF-neutralization bioassay was constructed. In other words, LM cells were pretreated with TNF (20 ng/ml) and the compounds synthesized in the above examples at various concentrations (5×10^4 cells/well), and a sensitizer actinomycin D ([…]) was added, and cultured in a CO2 incubator for 24 hours, and then the MTT assay was carried out. At this time, 10 μl of MTT (5 mg/ml stock) was added, reacted for 4 hours, and then dissolved in DMSO to measure the absorbance at 570 nm. First, the TNF cell death inhibition/neutralization action of TNF-target expected compounds at single concentration (50 or 10 μM) was measured. Second, IC50 values were determined by treating with the compounds having an excellent effect at different concentrations. The % inhibition of TNF was calculated using the following formula: % inhibition of TNF=(OD value of a group treated with TNF and compound−OD value of TNF treated group/(OD value of TNF untreated group−OD value of TNF treated group)×100.
IC50 values were statistically analyzed using Prism 6 (GraphPad) (IC50: 50% inhibitory concentration, CC50: 50% cytotoxic concentration).
Background: Formazan colour is commonly taken as a measure of viable cells.

Data set [5] has as its system DBA/1 mice. The experiment in a line: CIA mouse model, alone and in combination with methotrexate. As to conditions: Example 61 10 mpk PO once a day, MTX 5 mpk three times a week, to Day 73. It is filed as in vivo. An excerpt: A 1:1 mixture of collagen type 2 and CFA was intradermally (ID) injected into the base of the tail of DBA/1 mice. Two weeks after the primary immunization, a 1:1 mixture of bovine collagen type 2 and IFA (incomplete Freund's adjuvant) was intradermally (ID) injected into the base of the tail to prepare the rheumatoid arthritis animal model. The thus prepared mice were divided into […], i.e., a positive control group (MTX 5 mpk treated group: 10 mice), a group treated with the compound of Example 61 alone (10 mpk treated group: 9 mice), a group treated with MTX and the compound of Example 61 (each 5 mpk and 10 mpk; 9 mice), and a group treated with vehicle (a group treated with 0.05% CMC diluted in distilled water; 15 mice). […]
The severity of arthritis was determined by ascertaining the mean score of arthritis according to the following standard score in the forefoot and hindfoot twice a week from Day 0 to Day 73 after the primary immunization: 0=normal foot, 1=inflammation and swelling of one toe, 2=inflammation and swelling of more than one toe, but not all of the toes have inflammation and swelling, or weak swelling of all toes, 3=inflammation and swelling of all toes, and 4=severe inflammation and swelling or occlusion of foot.

T2 sequence (P01375 77-233 limits assumed): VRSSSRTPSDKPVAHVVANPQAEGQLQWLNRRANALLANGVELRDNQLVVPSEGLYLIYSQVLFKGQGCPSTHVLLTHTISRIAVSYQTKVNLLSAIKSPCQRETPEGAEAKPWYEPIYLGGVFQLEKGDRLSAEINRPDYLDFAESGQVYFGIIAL
T1 sequence (P01375 77-233 limits assumed): as above

As to `Cc1cccc(-c2oc3ccc(Br)cc3c(=O)c2C(=O)O)c1` [Example 30, 2-(3-methylphenyl)-3-carboxy-6-bromo-(4H)-4-benzopyranone], the melting point (in general, the temperature, or range, at which the solid turns liquid) lay within 208 to 210 °C. The “inhibitory activity against TNF-cell binding” value in data set [1] is on record as “did not inhibit the cell binding of TNF at all”. Further, in data set [2], the “binding to TNF” value is reported as “did not bind to TNF”. Moreover, the inhibition (as a rule, the share of the control response that was lost under treatment) at 50 µM in data set [3] stood at 7.4%.
Turning to `O=C(O)c1c(-c2cc(F)cc(F)c2)oc2ccc(Br)cc2c1=O` [Example 51, 2-(3,5-difluorophenyl)-3-carboxy-6-bromo-(4H)-4-benzopyranone], the melting point is 216 to 218 °C. Moreover, the “inhibitory activity against TNF-cell binding” value in data set [1] was “moderate inhibitory activity”. Besides, the CC50 (usually the concentration giving 50% cytotoxicity) at 24 h in data set [4] stood at 13 µM. In addition, in data set [3], the inhibition at 50 µM was determined as 100%. Besides, it took 4.5 µM to reach half-maximal inhibition in data set [3] (inhibition of TNF-induced LM cell death) (IC50).
Take `CN(Cc1cnc2nc(N)nc(N)c2n1)c1ccc(C(=O)N[C@@H](CCC(=O)O)C(=O)O)cc1` [MTX, methotrexate, reference compound]: the “therapeutic effect on arthritis (mean arthritis score)” value in data set [5] is given as “therapeutic effect on arthritis was shown”.
